Experimental data as given in patent US20180280393A1, “METHODS AND COMPOSITIONS FOR TREATMENT OF METASTATIC AND REFRACTORY CANCERS AND TUMORS” (The Wistar Institute of Anatomy and Biology, priority 2015, published 2018).
Where two headings read alike, the source gives them in different places.

What was measured:
human T cells [1] = experiment: Cytokine rescue of human T cell proliferation from MEK inhibition; format: cell-based; settings: GDC0973 or trametinib
Method: Proliferation of CD8 T cells after 7 days is shown.
FIG. 2D is a graph showing that human PBMCs were activated as in FIG. 2B with the indicated compounds, BKM120=2 μM.
Reported are percentages of cells that proliferated with GDC0973 relative to vehicle treatment with the same cytokines after 7 days. Stains are not depicted.
(§1) T cell stimulation—For human T cell proliferation assays, peripheral blood lymphocytes were obtained by leukapheresis/elutriation and Miltenyi bead-purified and K562 cells expressing human CD32 were generated as previously described^41. K32 were γ-irradiated (100 Gy) and loaded with anti-CD3 (500 ng/ml, clone OKT3; eBioscience) plus anti-CD28 (500 ng/ml, clone 15E8; EMD Millipore) antibodies at room temperature for 10 minutes. PBMCs were labeled with CELLTRACE Violet stain (Invitrogen) according to the manufacturer's instructions and cocultured with loaded K32 cells at a 10:1 T cells:K32 ratio or activated with ConA (2 μg/ml, Sigma). Proliferation of stimulated T cells was determined 7 days later by FACS and Division Index was calculated using FlowJo software.

[2] = test system: A2780 ovarian cancer cells; experiment: Molecular screening of compounds on A2780 cell proliferation (resazurin fluorescence); format: cell-based, human; settings: A2780 cells cultured 3 days, N/A = ambiguous curve fits or EC50 greater than the highest concentration tested (25 μM), read-out: EC5 - A2780 ovarian cancer cells
Method: Cell proliferation assays—Cells were plated in 96-well plates. Compounds were added the next morning, and cell proliferation was measured 48 hrs later with the […] 96 MTS assay (Promega) according to the manufacturer's instructions. Molecular screening of compounds on A2780 cells was performed by adding compounds the morning after plating in 384-well plates and measuring proliferation 72 hrs later with resazurin fluorescence. Normalized percent inhibition (NPI) was calculated with respect to fluorescence values obtained with DMSO negative control and doxorubicin (5 μM) positive control as NPI=100%*(DMSO−compound)/(DMSO−doxorubicin). TCR ligation of human CD8 T cells
(§2) EC50 values were calculated from normalized percent inhibition data using non-linear curve fitting in PRISM software.

human T cells [3] = experiment: ConA-induced activation and expansion of human T cells (high-throughput screen); format: cell-based; settings: human T cells activated with ConA for 7 days, N/A = ambiguous curve fits or EC50 greater than the highest concentration tested (25 μM)
Method: as §1, with “K32 were γ-irradiated (100 Gy) and loaded with anti-CD3 (500 ng/ml, clone OKT3; eBioscience) plus anti-CD28 (500 ng/ml, clone 15E8; EMD Millipore) antibodies at room temperature for 10 minutes.” left out
as §2

human T cells [4] = experiment: aAPC (anti-CD3/anti-CD28)-induced human T cell proliferation, CELLTRACE; format: cell-based; settings: 7 days
Method: Four plots show proliferation of CD8 cells after 7 days is shown. […] Proliferation of CD8 cells after 7 days is shown. T cell stimulation-For human T cell proliferation assays, peripheral blood lymphocytes were obtained by leukapheresis/elutriation and Miltenyi bead-purified and K562 cells expressing human CD32 were generated as previously described^41. […] were γ-irradiated (100 Gy) and loaded with anti-CD3 (500 ng/ml, clone OKT3; eBioscience) plus anti-CD28 (500 ng/ml, clone 15E8; EMD Millipore) antibodies at room temperature for 10 minutes. PBMCs were labeled with CELLTRACE Violet stain (Invitrogen) according to the manufacturer's instructions and cocultured with loaded […] cells at a 10:1 T cells:[…] ratio or activated with ConA (2 μg/ml, Sigma). Proliferation of stimulated T cells was determined 7 days later by FACS and Division Index was calculated using FlowJo software.

Molecule | EC50 ([2]; Homo sapiens, 72 h) [µM] | EC50 (human T cells [3]; T-cell, 168 h) [µM] | further results
IL-21: cytokine tested for rescue of T cell expansion from MEK inhibition | – | – | rescue of T cell proliferation in the presence of the MEK inhibitors (human T cells [1]): no effect
COc1ccc(C2=N[C@@H](c3ccc(Cl)cc3)[C@@H](c3ccc(Cl)cc3)N2C(=O)N2CCNC(=O)C2)c(OC(C)C)c1 [nutlin-3a] | – | – | EC50 [2]: 16.8 µM; EC50 (human T cells [3]): 1.13 µM
CCc1cc(Nc2nccc(-c3c(-c4ccc(OC)c(C(=O)Nc5c(F)cccc5F)c4)nc4ccccn34)n2)c(OC)cc1N1CCC(N2CCN(S(C)(=O)=O)CC2)CC1 [GSK1904529] | – | – | EC50 (human T cells [3]): 13.9 µM
Cn1c(Nc2ccc(C(F)(F)F)cc2)nc2cc(Oc3ccnc(-c4ncc(C(F)(F)F)[nH]4)c3)ccc21 [RAF265] | 5.63 | 0.128 | –
NC1(c2ccc(-c3nc4ccn5c(=O)[nH]nc5c4cc3-c3ccccc3)cc2)CCC1 [MK2206] | 8.75 | 0.446 | –
Cn1cnc2c(F)c(Nc3ccc(Br)cc3Cl)c(C(=O)NOCCO)cc21 [AZD6244 (selumetinib), selumetinib] | – | 24.5 | –
Nc1cc(C(F)(F)F)c(-c2cc(N3CCOCC3)nc(N3CCOCC3)n2)cn1 [BKM120] | 11.5 | 0.239 | proliferation of human T cells in response to aAPC coated with agonistic CD3 and CD28 antibodies (human T cells [4]): restricted the proliferation
Cc1cc([C@@H](C)Nc2ccccc2C(=O)O)c2nc(N3CCOCC3)cc(=O)n2c1 [AZD6482] | – | 0.962 | –
Cc1c(C(=O)Nc2ccc(N3C[C@@H](C)O[C@@H](C)C3)nc2)cccc1-c1ccc(OC(F)(F)F)cc1 [LDE225] | 8.48 | 3.57 | –
O=C(Nc1cccc(Cl)c1)Nc1ncc(CCNc2ncnc3ccsc23)s1 [SNS314] | 5.83 | 0.0729 | –
C=CCN(/C=C1/C(=O)O[C@H](COC)[C@@]2(C)C1=C(O)C(=O)C1=C2[C@H](OC(C)=O)C[C@]2(C)C(=O)CC[C@@H]12)CC=C [PX-866] | – | – | EC50 (human T cells [3]): 1.2 µM
COc1cccc2cc(-c3nc([C@H]4CC[C@H](C(=O)O)CC4)n4ncnc(N)c34)[nH]c12 [OSI027] | 5.88 | 0.311 | –
CN(C)C(=O)c1cc2cnc(Nc3ccc(N4CCNCC4)cn3)nc2n1C1CCCC1 [LEE011] | – | 2.93 | –
CN1CCN(CCOc2cc(OC3CCOCC3)c3c(Nc4c(Cl)ccc5c4OCO5)ncnc3c2)CC1 [AZD0530 (saracatinib), saracatinib] | – | 0.422 | –
CC(C)(C)c1nc(-c2cccc(NS(=O)(=O)c3c(F)cccc3F)c2F)c(-c2ccnc(N)n2)s1 [GSK436 (dabrafenib), dabrafenib] | 11.4 | 1.28 | –
CC(C)(C)c1cc(C=C(C#N)C#N)cc(Br)c1O [AG1024] | – | – | EC50 [2]: 21.3 µM; EC50 (human T cells [3]): 9.83 µM
CC(C)n1nc(-c2ccc3oc(N)nc3c2)c2c(N)ncnc21 [INK128] | 0.257 | 0.0184 | –

Molecule | EC50 ([2]; Homo sapiens, 72 h) [µM] | EC50 (human T cells [3]; T-cell, 168 h) [µM] | further results
COc1ncc(-c2ccc3nccc(-c4ccnnc4)c3c2)cc1NS(=O)(=O)c1ccc(F)cc1F [GSK2126458] | – | – | EC50 [2]: 0.155 µM; EC50 (human T cells [3]): 0.000237 µM
CO[C@H]1C[C@@H]2CC[C@@H](C)[C@@](O)(O2)C(=O)C(=O)N2CCCC[C@H]2C(=O)O[C@H]([C@H](C)C[C@@H]2CC[C@@H](O)[C@H](OC)C2)CC(=O)[C@H](C)/C=C(\C)[C@@H](O)[C@@H](OC)C(=O)[C@H](C)C[C@H](C)/C=C/C=C/C=C/1C [Rapamycin] | – | 0.00403 | –
Cn1ncc(Cl)c1-c1cc(C(=O)N[C@H](CN)Cc2ccc(F)c(F)c2)oc1Cl [GSK2141795] | – | – | EC50 [2]: 2.35 µM; EC50 (human T cells [3]): 0.096 µM
Cc1cc(-c2ncc(CC(=O)Nc3ccc(-c4cnccn4)cn3)cc2C)ccn1 [LGK974] | 24.4 | 9.03 | –
Cc1cn(-c2cc(NC(=O)c3ccc(C)c(Nc4nccc(-c5cccnc5)n4)c3)cc(C(F)(F)F)c2)cn1 [AMN107] | 19.1 | 2.48 | –
Cc1[nH]c2ccccc2c1CCNCc1ccc(/C=C/C(=O)NO)cc1 [LBH589] | 3.61 | – | –
O=C(c1ccc(F)c(F)c1Nc1ccc(I)cc1F)N1CC(O)([C@@H]2CCCCN2)C1 [GDC0973] | 9.04 | 0.00435 | proliferation of human T cells in response to aAPC coated with agonistic CD3 and CD28 antibodies (human T cells [4]): restricted the proliferation
O=C(Nc1ccc2[nH]nc(-c3ccncc3)c2c1)[C@@H]1CCN(CC(=O)N2CCN(c3ccc(-c4ncccn4)cc3)CC2)C1 [SCH772984] | 7.64 | 0.0222 | –
CCN(CCCOc1ccc2c(Nc3cc(CC(=O)Nc4cccc(F)c4)n[nH]3)ncnc2c1)CCOP(=O)(O)O [AZD1152] | – | 0.0921 | –
CC(=O)c1c(C)c2cnc(Nc3ccc(N4CCNCC4)cn3)nc2n(C2CCCC2)c1=O [PD0332991] | 5.21 | – | –
COc1cc(Nc2ncc3c(n2)-c2ccc(Cl)cc2C(c2c(F)cccc2OC)=NC3)ccc1C(=O)O [MLN8237] | – | 0.0868 | –
COC1=CC(c2cc3ccccc3[nH]2)=N/C1=C\c1[nH]c(C)cc1C [obatoclax] | 1.11 | 0.0567 | –
CS(=O)(=O)N1CCN(Cc2cc3nc(-c4cccc5[nH]ncc45)nc(N4CCOCC4)c3s2)CC1 [GDC0941] | 1.54 | – | –
CCCS(=O)(=O)Nc1ccc(F)c(C(=O)c2c[nH]c3ncc(-c4ccc(Cl)cc4)cc23)c1F [PLX4032 (vemurafenib), vemurafenib] | – | 5.26 | –
O=c1cc(N2CCOCC2)oc2c(-c3ccccc3)cccc12 [LY294002] | 17.2 | 2.69 | –
IL-27: cytokine tested for rescue of T cell expansion from MEK inhibition (protein, UniProt Q8NEV9 29-243; Q14213 21-229, looked up) Interleukin-27 subunit alpha: FPRPPGRPQLSLQELRREFTVSLHLARKLLSEVRGQAHRFAESHLPGVNLYLLPLGEQLPDVSLTFQAWRRLSDPERLCFISTTLQPFHALLGGLGTQGRWTNMERMQLWAMRLDLRDLQRHLRFQVLAAGFNLPEEEEEEEEEEEEERKGLLPGALGSALQGPAQVSWPQLLSTYRLLHSLELVLSRAVRELLLLSKAGHSVWPLGFPTLSPQP Interleukin-27 subunit beta: RKGPPAALTLPRVQCRASRYPIAVDCSWTLPPAPNSTSPVSFIATYRLGMAARGHSWPCLQQTPTSTSCTITDVQLFSMAPYVLNVTAVHPWGSSSSFVPFITEHIIKPDPPEGVRLSPLAERQLQVQWEPPGSWPFPEIFSLKYWIRYKRQGAARFHRVGPIEATSFILRAVRPRARYYVQVAAQDLTDYGELSDWSLPATATMSLGK | – | – | rescue of T cell proliferation in the presence of the MEK inhibitors (human T cells [1]): no effect
IL-7: recombinant mouse IL-7 (Peprotech) (protein, UniProt P10168 26-154, looked up) Interleukin-7: ECHIKDKEGKAYESVLMISIDELDKMTGTDSNCPNNEPNFFRKHVCDDTKEAAFLNRAARKLKQFLKMNISEEFNVHLLTVSQGTQTLVNCTSKEEKNVKEQKKNDACFLKRLLREIKTCWNKILKGSI | – | – | rescue of T cell proliferation in the presence of the MEK inhibitors (human T cells [1]): able to rescue T cell proliferation
